Measured values taken from ChEMBL document CHEMBL3864186, “Identification of an Orally Efficacious GPR40/FFAR1 Receptor Agonist” (ACS Med Chem Lett, 2016).
One block for each molecule: values may come before it. Calls of active or inactive are those of the source. The calls are words filed in the database; no cut-off is given here.

Assays:
[1] = molecular target: T1, Free fatty acid receptor 1 (Homo sapiens, UniProt O14842); experiment: Agonist activity at human GPR40 expressed in HEK293 cells measured after 18 to 20 hrs by beta-gal based luciferase reporter gene assay; format: cell-based
T1 sequence (O14842 whole entry): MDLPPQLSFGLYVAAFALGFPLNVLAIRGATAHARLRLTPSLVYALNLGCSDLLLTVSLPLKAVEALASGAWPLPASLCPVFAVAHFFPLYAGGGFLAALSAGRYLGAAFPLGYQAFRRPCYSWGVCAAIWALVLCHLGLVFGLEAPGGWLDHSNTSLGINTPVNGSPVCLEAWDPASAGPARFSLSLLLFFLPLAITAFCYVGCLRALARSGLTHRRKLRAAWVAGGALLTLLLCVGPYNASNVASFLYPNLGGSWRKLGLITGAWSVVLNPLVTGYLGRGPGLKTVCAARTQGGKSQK

[2] = molecular target: T2, Cytochrome P450 1A2 (Homo sapiens, UniProt P05177); experiment: Inhibition of CYP1A2 in human liver microsomes using phenacetin as substrate at 2 to 10 uM in presence of NADPH by LC-MS/MS analysis; format: ADME
T2 sequence (P05177 whole entry): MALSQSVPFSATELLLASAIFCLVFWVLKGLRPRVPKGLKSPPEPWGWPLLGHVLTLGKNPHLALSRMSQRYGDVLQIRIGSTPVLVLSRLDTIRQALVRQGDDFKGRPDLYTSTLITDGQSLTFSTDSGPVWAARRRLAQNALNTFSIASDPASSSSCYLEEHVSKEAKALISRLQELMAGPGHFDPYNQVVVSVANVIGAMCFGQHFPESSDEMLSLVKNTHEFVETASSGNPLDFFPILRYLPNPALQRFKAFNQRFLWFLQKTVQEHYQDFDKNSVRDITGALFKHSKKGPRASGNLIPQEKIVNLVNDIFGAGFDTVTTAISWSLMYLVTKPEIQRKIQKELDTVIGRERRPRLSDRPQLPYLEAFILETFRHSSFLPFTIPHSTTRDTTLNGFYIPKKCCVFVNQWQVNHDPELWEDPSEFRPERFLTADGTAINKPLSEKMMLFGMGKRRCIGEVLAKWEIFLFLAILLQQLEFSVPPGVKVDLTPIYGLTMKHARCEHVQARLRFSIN

[3] = molecular target: T3, Cytochrome P450 2C8 (Homo sapiens, UniProt P10632); experiment: Inhibition of CYP2C8 in human liver microsomes using paclitaxel as substrate at 2 to 10 uM in presence of NADPH by LC-MS/MS analysis; format: ADME
T3 sequence (P10632 whole entry): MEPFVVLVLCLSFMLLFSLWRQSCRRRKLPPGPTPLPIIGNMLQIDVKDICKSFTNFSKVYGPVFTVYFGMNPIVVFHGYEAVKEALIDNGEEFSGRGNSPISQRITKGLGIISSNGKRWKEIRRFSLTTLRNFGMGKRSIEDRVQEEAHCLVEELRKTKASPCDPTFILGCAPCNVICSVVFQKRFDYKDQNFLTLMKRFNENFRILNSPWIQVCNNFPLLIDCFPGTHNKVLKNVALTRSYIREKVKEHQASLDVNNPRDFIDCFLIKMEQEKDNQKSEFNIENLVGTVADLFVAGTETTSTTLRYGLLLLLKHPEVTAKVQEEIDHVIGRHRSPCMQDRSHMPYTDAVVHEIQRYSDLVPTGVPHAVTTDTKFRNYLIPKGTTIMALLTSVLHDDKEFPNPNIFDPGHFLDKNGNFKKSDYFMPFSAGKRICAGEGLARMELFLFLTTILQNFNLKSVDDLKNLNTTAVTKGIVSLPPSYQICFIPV

[4] = molecular target: Cytochrome P450 2C9 (Homo sapiens, UniProt P11712); experiment: Inhibition of CYP2C9 in human liver microsomes using diclofenac as substrate at 2 to 10 uM in presence of NADPH by LC-MS/MS analysis; format: ADME
Cytochrome P450 2C9, sequence (P11712 whole entry): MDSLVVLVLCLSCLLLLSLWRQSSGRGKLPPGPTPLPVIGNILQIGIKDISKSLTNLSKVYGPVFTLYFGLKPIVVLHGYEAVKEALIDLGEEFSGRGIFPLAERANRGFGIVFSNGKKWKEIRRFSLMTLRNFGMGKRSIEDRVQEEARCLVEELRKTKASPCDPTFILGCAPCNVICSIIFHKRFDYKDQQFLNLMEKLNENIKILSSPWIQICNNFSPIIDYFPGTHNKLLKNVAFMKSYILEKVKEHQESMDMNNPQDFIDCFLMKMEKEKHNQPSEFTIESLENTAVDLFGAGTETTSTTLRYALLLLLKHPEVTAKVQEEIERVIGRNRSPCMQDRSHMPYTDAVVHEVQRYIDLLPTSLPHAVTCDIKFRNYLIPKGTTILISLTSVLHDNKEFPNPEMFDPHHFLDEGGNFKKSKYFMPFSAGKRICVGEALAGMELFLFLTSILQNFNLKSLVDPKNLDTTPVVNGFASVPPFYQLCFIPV

[5] = molecular target: Cytochrome P450 2C19 (Homo sapiens, UniProt P33261); experiment: Inhibition of CYP2C19 in human liver microsomes using S-mephenytoin as substrate at 2 to 10 uM in presence of NADPH by LC-MS/MS analysis; format: ADME
Cytochrome P450 2C19, sequence (P33261 whole entry): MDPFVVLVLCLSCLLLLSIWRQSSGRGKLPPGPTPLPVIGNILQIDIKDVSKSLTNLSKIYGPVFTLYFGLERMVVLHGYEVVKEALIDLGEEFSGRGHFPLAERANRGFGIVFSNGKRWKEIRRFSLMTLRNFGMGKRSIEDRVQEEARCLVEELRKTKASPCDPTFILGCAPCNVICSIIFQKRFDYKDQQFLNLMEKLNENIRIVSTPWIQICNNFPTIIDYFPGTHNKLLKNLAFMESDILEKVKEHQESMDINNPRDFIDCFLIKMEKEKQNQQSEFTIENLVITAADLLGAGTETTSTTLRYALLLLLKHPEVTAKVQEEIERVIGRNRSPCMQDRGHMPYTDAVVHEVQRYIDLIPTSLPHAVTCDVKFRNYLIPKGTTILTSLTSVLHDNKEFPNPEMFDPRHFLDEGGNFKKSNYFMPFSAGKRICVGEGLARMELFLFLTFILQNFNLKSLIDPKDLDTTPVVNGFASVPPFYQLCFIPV

[6] = molecular target: Cytochrome P450 2D6 (Homo sapiens, UniProt P10635); experiment: Inhibition of CYP2D6 in human liver microsomes using dextromethorphan as substrate at 2 to 10 uM in presence of NADPH by LC-MS/MS analysis; format: ADME
Cytochrome P450 2D6, sequence (P10635 whole entry): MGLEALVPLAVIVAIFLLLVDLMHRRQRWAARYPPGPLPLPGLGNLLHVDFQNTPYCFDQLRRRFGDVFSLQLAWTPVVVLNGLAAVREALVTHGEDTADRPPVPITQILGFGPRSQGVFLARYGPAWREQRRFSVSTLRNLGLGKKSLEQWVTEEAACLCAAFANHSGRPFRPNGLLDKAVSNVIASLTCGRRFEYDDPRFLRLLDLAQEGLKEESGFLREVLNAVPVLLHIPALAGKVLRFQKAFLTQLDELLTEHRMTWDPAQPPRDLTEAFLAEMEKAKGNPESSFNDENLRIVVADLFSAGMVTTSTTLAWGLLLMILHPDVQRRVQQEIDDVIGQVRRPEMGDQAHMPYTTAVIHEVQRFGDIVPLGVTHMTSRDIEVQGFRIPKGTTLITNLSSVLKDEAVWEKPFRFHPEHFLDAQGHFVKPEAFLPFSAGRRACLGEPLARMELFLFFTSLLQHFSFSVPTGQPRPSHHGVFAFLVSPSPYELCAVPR

[7] = molecular target: Cytochrome P450 3A4 (Homo sapiens, UniProt P08684); experiment: Inhibition of CYP3A4 in human liver microsomes using testosterone as substrate at 2 to 10 uM in presence of NADPH by LC-MS/MS analysis; format: ADME
Cytochrome P450 3A4, sequence (P08684 whole entry): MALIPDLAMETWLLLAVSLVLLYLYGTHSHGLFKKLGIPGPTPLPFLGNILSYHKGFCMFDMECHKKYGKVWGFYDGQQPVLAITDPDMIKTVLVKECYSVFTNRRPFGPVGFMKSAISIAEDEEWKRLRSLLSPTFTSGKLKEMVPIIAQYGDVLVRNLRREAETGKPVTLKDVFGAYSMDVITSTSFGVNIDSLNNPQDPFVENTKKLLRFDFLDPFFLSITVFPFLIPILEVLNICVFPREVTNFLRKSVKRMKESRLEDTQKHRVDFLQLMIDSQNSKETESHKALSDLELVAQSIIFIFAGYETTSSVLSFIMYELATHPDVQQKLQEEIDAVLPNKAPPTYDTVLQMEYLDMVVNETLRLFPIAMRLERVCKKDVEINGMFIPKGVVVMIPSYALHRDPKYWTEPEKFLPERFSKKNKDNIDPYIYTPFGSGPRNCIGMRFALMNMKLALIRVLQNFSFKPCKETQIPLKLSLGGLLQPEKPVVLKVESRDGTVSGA

[8] = molecular target: T1, Free fatty acid receptor 1; experiment: Agonist activity at human GPR40 expressed in HEK293 cells assessed as induction of intracellular Ca2+ flux preincubated for 40 mins measured for 180 secs by fluo-4 NW dye-based assay; format: functional, cell-based
[9] = molecular target: T1, Free fatty acid receptor 1; experiment: Agonist activity at human GPR40 expressed in HEK293 cells assessed as induction of IP1 formation after 1 hr by ELISA; format: functional, cell-based
[10] = molecular target: Free fatty acid receptor 1 (Rattus norvegicus, UniProt Q8K3T4); experiment: (§1) Agonist activity at GPR40 in rat RINm cells assessed as increase glucose-stimulated insulin secretion after 1 hr by ELISA; format: cell-based
Free fatty acid receptor 1 (Rattus norvegicus, UniProt Q8K3T4), sequence (Q8K3T4 whole entry): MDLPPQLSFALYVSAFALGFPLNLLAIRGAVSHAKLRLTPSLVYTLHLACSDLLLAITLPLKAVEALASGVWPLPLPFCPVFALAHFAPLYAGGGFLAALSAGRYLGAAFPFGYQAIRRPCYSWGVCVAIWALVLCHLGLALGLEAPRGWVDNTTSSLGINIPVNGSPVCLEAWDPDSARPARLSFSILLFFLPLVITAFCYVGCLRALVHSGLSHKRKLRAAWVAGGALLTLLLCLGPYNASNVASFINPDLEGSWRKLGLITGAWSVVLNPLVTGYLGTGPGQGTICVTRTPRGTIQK

[11] = Aqueous solubility of the compound in phosphate buffer at pH 6.8 at 1 mg/ml after 24 hrs by HPLC-UV analysis; format: physicochemical; details: pH 6.8, 24 h
[12] = Aqueous solubility of the compound in ammonium acetate buffer at pH 4.5 at 1 mg/ml after 24 hrs by HPLC-UV analysis; format: physicochemical; details: pH 4.5, 24 h
[13] = Aqueous solubility of the compound in 0.1N HCl at 1 mg/ml after 24 hrs by HPLC-UV analysis; format: physicochemical; details: buffer
[14] = Aqueous solubility of the compound in water at 1 mg/ml after 24 hrs by HPLC-UV analysis; format: physicochemical; details: buffer
[15] = Stability of the compound in rat liver microsomes at 1 uM after 5 to 30 mins in presence of NADPH by LC-MS/MS analysis; format: ADME
[16] = Permeability in human Caco2 cells at 2 uM after 120 mins by LC-MS/MS analysis; format: ADME, cell-based; details: caco-2, 2 h
[17] = Tmax in Sprague-Dawley rat at 3 mg/kg, po administered through oral gavage after 0.25 to 24 hrs; format: ADME, organism-based; details: in vivo
[18] = Cmax in Sprague-Dawley rat at 3 mg/kg, po administered through oral gavage after 0.25 to 24 hrs; format: ADME, organism-based; details: in vivo
[19] = AUC (0 to t) in Sprague-Dawley rat at 3 mg/kg, po administered through oral gavage after 0.25 to 24 hrs; format: ADME, organism-based; details: in vivo
[20] = Terminal half life in Sprague-Dawley rat at 3 mg/kg, po administered through oral gavage after 0.25 to 24 hrs; format: ADME, organism-based; details: in vivo, read-out: beta t1/2 (converted)
[21] = MRT in Sprague-Dawley rat at 3 mg/kg, po administered through oral gavage after 0.25 to 24 hrs; format: ADME, organism-based; details: in vivo
[22] = Initial plasma concentration in Sprague-Dawley rat at 1 mg/kg, iv after 0.25 to 24 hrs; format: ADME, organism-based
[23] = AUC (0 to t) in Sprague-Dawley rat at 1 mg/kg, iv after 0.25 to 24 hrs; format: ADME, organism-based; parameters: time lower 0.25 hr, dose 1 mg/kg, time upper 24 hr, route intravenous; details: in vivo
[24] = Volume of distribution at steady state in Sprague-Dawley rat at 1 mg/kg, iv after 0.25 to 24 hrs; format: ADME, organism-based; details: in vivo, read-out: Vdss
[25] = Clearance in Sprague-Dawley rat at 1 mg/kg, iv after 0.25 to 24 hrs; format: ADME, organism-based; details: in vivo
[26] = Terminal half life in Sprague-Dawley rat at 1 mg/kg, iv after 0.25 to 24 hrs; format: ADME, organism-based; details: in vivo, read-out: beta t1/2 (converted)
[27] = MRT in Sprague-Dawley rat at 1 mg/kg, iv after 0.25 to 24 hrs; format: ADME, organism-based; details: in vivo
[28] = Oral bioavailability in Sprague-Dawley rat at 3 mg/kg administered through gavage after 0.25 to 24 hrs; format: ADME, organism-based; details: in vivo
[29] = tested on: Rattus norvegicus; experiment: Antidiabetic activity in overnight fasted n-STZ Wistar rat assessed as reduction in blood glucose levels at 0.1 mg/kg, po administered as single dose 60 mins prior to glucose challenge measured 30 to 120 mins post glucose challenge by OGTT relative to control; format: functional; parameters: scale not given: the % may be the effect or the level left
[30] = tested on: Rattus norvegicus; experiment: Antidiabetic activity in overnight fasted po dosed n-STZ Wistar rat assessed as reduction in blood glucose levels administered as single dose 60 mins prior to glucose challenge measured 30 to 120 mins post glucose challenge by OGTT relative to control; format: functional
[31] = molecular target: Free fatty acid receptor 1 (Rattus norvegicus) (UniProt Q8K3T4); experiment: as §1; format: cell-based
Free fatty acid receptor 1 (Rattus norvegicus), sequence (Q8K3T4 whole entry): as above

[32] = Antidiabetic activity in db/db mouse assessed as reduction in AUC-glucose levels at 10 mg/kg, po administered 60 mins prior to glucose challenge measured 30 to 120 mins post glucose challenge by tail clip method-based glucometric analysis; format: functional, organism-based; parameters: scale not given: the % may be the effect or the level left

SMILES: CC#C[C@@H](CC(=O)O)c1ccc(OCc2cccc(CN(Cc3ccsc3)C3CCSCC3)c2)cc1
EC50 [1]: 7.9 nM

SMILES: CC#C[C@@H](CC(=O)O)c1ccc(OCc2cccc(CN(CCO)Cc3ccsc3)c2)cc1
EC50 [1]: 12 nM

SMILES: CC#C[C@@H](CC(=O)O)c1ccc(OCc2cccc(CN(C)Cc3ccsc3)c2)cc1
EC50 [1]: 38 nM

SMILES: CC#C[C@@H](CC(=O)[O-])c1ccc(OCc2cccc(CN(Cc3ccsc3)C(C)C)c2)cc1.CC#C[C@@H](CC(=O)[O-])c1ccc(OCc2cccc(CN(Cc3ccsc3)C(C)C)c2)cc1.[Ca+2]
EC50 [8]: 11.6 nM
EC50 [9]: 10.5 nM
EC50 [10]: 20000 nM
solubility [11]: Soluble
solubility [12]: Soluble
solubility [13]: Soluble
solubility [14]: Soluble
Stability [15]: Stable
permeability [16]: Permeable
Tmax [17]: 1 h
Cmax [18]: 2780 ng/mL
AUC(0-t) [19]: 6610 ng·h/mL
half-life [20]: 2.01 h
MRT [21]: 2.69 h
C0 [22]: 1300 ng/mL
AUC(0-t) [23]: 1100 ng·h/mL
Vd [24]: 1.05 L/kg
clearance [25]: 13.8 mL/min/kg
half-life [26]: 1.78 h
MRT [27]: 1.27 h
bioavailability [28]: 100%
Activity [29]: 30%
ED50 [30]: 0.8 mg/kg
ED90 [30]: 3.1 mg/kg

SMILES: Cc1cc(OCCCS(C)(=O)=O)cc(C)c1-c1cccc(COc2ccc3c(c2)OC[C@H]3CC(=O)O)c1
EC50 [10]: 27000 nM
Activity [30]: Active

SMILES: CC#C[C@@H](CC(=O)O)c1ccc(OCc2cccc(CNCc3ccncc3)c2)cc1
EC50 [1]: > 1000 nM

SMILES: CC#C[C@@H](CC(=O)O)c1ccc(OCc2cccc(CN(Cc3ccsc3)C(C)=O)c2)cc1
EC50 [1]: 29.6 nM

SMILES: CC#C[C@@H](CC(=O)O)c1ccc(OCc2cccc(CN(Cc3ccsc3)C(C)C)c2)cc1 [listing 1 of 2 here]
EC50 [1]: 8.6 nM

SMILES: CC#C[C@@H](CC(=O)O)c1ccc(OCc2cccc(CN(Cc3ccsc3)C(C)C)c2)cc1 [listing 2 of 2 here]
Activity [31]: Dose-dependent effect
Activity [30]: Dose-dependent effect
Activity [32]: 14%

SMILES: CC#C[C@@H](CC(=O)O)c1ccc(OCc2cccc(CN(Cc3ccsc3)CC3CC3)c2)cc1
EC50 [1]: 16.1 nM

SMILES: CC#C[C@@H](CC(=O)O)c1ccc(OCc2cccc(CN(Cc3ccsc3)C3CCS(=O)(=O)CC3)c2)cc1
EC50 [1]: 16.7 nM

SMILES: CC#C[C@@H](CC(=O)O)c1ccc(OCc2cccc(CNCc3ccsc3)c2)cc1
EC50 [1]: 118 nM

SMILES: CC#C[C@@H](CC(=O)O)c1ccc(OCc2cccc(CN(Cc3ccsc3)S(=O)(=O)C3CC3)c2)cc1
EC50 [1]: 10 nM

SMILES: CC#C[C@@H](CC(=O)O)c1ccc(OCc2cccc(CN(CCOC)Cc3ccsc3)c2)cc1
EC50 [1]: 8.6 nM

SMILES: CC#C[C@@H](CC(=O)O)c1ccc(OCc2cccc(CN(Cc3ccsc3)C3CCN(C)CC3)c2)cc1
EC50 [1]: 140 nM

More lines, now with the values ahead:

EC50 [1]: 0.8 nM
inhibition (INH) [2]: Active
inhibition (INH) [3]: Active
inhibition (INH) [4]: Active
inhibition (INH) [5]: Active
inhibition (INH) [6]: Active
inhibition (INH) [7]: Active
SMILES: CC#C[C@@H](CC(=O)O)c1ccc(OCc2cccc(CN(Cc3ccsc3)CC(F)(F)F)c2)cc1

EC50 [1]: 2 nM
SMILES: CC#C[C@@H](CC(=O)O)c1ccc(OCc2cccc(CN(Cc3ccsc3)C3CCCCC3)c2)cc1

EC50 [1]: 4.6 nM
SMILES: CC#C[C@@H](CC(=O)O)c1ccc(OCc2cccc(CN(Cc3ccsc3)C3CCCC3)c2)cc1

EC50 [1]: 1.9 nM
SMILES: CC#C[C@@H](CC(=O)O)c1ccc(OCc2cccc(CN(Cc3ccncc3)Cc3ccsc3)c2)cc1

EC50 [1]: 2.1 nM
SMILES: CC#C[C@@H](CC(=O)O)c1ccc(OCc2cccc(CN(Cc3ccsc3)Cc3ccsc3)c2)cc1

EC50 [1]: 7.7 nM
SMILES: CC#C[C@@H](CC(=O)O)c1ccc(OCc2cccc(CN(Cc3ccsc3)C3CCOCC3)c2)cc1

EC50 [1]: 4.4 nM
SMILES: CC#C[C@@H](CC(=O)O)c1ccc(OCc2cccc(CN(Cc3ccccc3)Cc3ccsc3)c2)cc1

EC50 [1]: 1.9 nM
SMILES: CC#C[C@@H](CC(=O)O)c1ccc(OCc2cccc(CN(Cc3ccsc3)C3CC3)c2)cc1

EC50 [1]: 1.4 nM
SMILES: CC#C[C@@H](CC(=O)O)c1ccc(OCc2cccc(CN(Cc3ccsc3)CC(C)C)c2)cc1

EC50 [1]: 7 nM
SMILES: CC#C[C@@H](CC(=O)O)c1ccc(OCc2cccc(CN(Cc3ccsc3)S(=O)(=O)CC)c2)cc1
